How the values were obtained:
Test in all cases: kinase selectivity panel
Assay type in all cases: biochemical
[1] = molecular target: T1, c-RAF (Homo sapiens, UniProt P04049); settings: read-out: percentage of control activity (POC), c-RAF
T1 construct: purchased Eurofins Pharma Discovery Services (KinaseProfiler; Cerep BioPrint panel)
Protocol: (§1) Kinase selectivity was evaluated at Eurofins Pharma Discovery Services using a selection of 125 representative kinases tested at a concentration of 10 μM in duplicate (S3 Table). IC50 values for selected activities were further characterized at 9 duplicate concentrations. DNA-PK activity was determined at the SelectScreen® Biochemical kinase Profiling Service of Thermo Fisher Scientific.

[2] = molecular target: T2, PKA (Homo sapiens, UniProt P17612); settings: read-out: percentage of control activity (POC), PKA
T2 construct: purchased Eurofins Pharma Discovery Services (KinaseProfiler; Cerep BioPrint panel)
Protocol: as §1

[3] = molecular target: T3, ALK (Homo sapiens, UniProt Q9UM73); settings: read-out: percentage of control activity (POC), ALK
T3 construct: purchased Eurofins Pharma Discovery Services (KinaseProfiler; Cerep BioPrint panel)
Protocol: as §1

[4] = molecular target: T4, EphB4 (Homo sapiens, UniProt P54760); settings: read-out: percentage of control activity (POC), EphB4
T4 construct: purchased Eurofins Pharma Discovery Services (KinaseProfiler; Cerep BioPrint panel)
T4 sequence (P54760 16-987): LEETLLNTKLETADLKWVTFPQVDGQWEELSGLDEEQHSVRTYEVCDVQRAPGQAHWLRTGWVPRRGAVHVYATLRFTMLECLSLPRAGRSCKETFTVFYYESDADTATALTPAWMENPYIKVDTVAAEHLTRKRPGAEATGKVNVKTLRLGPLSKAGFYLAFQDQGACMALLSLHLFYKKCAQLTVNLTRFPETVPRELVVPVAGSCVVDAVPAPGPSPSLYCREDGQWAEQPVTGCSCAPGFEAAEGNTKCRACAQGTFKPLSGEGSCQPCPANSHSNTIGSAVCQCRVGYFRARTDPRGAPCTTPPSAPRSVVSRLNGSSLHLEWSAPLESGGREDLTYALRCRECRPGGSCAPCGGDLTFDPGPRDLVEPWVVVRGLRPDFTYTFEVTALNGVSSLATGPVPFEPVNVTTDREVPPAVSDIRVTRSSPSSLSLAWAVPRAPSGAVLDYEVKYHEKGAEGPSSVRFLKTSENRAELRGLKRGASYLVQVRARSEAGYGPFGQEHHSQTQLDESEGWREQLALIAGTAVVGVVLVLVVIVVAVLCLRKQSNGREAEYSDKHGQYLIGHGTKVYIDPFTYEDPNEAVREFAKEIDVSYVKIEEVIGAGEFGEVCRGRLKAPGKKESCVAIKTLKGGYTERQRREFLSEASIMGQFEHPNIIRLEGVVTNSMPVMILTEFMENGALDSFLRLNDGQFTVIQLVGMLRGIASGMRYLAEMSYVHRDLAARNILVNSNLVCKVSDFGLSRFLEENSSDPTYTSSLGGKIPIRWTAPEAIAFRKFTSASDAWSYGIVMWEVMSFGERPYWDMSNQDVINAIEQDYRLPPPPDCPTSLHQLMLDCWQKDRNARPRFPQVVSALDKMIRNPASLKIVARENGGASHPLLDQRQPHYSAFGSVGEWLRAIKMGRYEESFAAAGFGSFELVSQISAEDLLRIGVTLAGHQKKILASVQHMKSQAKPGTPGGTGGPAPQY
Protocol: as §1

[5] = molecular target: T5, Flt3 (Homo sapiens, UniProt P36888); settings: read-out: percentage of control activity (POC), Flt3
T5 construct: purchased Eurofins Pharma Discovery Services (KinaseProfiler; Cerep BioPrint panel)
T5 sequence (P36888 27-993): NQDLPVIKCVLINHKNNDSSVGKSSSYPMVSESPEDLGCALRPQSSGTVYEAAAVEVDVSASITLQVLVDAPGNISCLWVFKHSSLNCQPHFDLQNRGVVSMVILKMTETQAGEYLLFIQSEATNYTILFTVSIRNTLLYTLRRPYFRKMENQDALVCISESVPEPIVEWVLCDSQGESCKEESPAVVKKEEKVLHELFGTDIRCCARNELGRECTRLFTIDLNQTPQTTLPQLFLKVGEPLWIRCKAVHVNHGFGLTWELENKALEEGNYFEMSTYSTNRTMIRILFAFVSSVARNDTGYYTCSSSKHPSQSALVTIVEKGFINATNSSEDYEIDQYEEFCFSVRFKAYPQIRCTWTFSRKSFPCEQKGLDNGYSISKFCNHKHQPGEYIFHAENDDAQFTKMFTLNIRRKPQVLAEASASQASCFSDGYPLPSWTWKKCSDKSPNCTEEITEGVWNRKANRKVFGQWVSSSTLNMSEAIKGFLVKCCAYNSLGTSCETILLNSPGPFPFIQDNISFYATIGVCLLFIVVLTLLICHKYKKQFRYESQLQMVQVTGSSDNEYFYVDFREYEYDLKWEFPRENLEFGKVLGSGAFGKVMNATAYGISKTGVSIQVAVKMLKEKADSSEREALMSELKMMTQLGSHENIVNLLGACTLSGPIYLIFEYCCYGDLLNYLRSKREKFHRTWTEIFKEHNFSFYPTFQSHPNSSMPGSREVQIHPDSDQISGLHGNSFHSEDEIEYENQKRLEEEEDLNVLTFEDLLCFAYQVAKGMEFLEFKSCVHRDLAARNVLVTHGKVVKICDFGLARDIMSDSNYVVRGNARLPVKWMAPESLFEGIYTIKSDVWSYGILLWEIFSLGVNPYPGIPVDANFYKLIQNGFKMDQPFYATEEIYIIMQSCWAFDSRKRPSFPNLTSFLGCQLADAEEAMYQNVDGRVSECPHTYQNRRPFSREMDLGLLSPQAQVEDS
Protocol: as §1

[6] = molecular target: T6, Fgr (Homo sapiens, UniProt P09769); settings: read-out: percentage of control activity (POC), Fgr
T6 construct: purchased Eurofins Pharma Discovery Services (KinaseProfiler; Cerep BioPrint panel)
Protocol: as §1

[7] = molecular target: T7, JNK2α2 (Homo sapiens, UniProt P45984); settings: read-out: percentage of control activity (POC), JNK2α2
T7 construct: purchased Eurofins Pharma Discovery Services (KinaseProfiler; Cerep BioPrint panel)
Protocol: as §1

[8] = molecular target: T8, Flt4 (Homo sapiens, UniProt P35916); settings: for remaining activity at 10 µM: read-out: percentage of control activity (POC), Flt4
T8 construct: Eurofins Pharma Discovery Services (contract assay service)
Protocol: as §1

[9] = molecular target: T9, Lyn (Homo sapiens, UniProt P07948); settings: read-out: percentage of control activity (POC), Lyn
T9 construct: purchased Eurofins Pharma Discovery Services (KinaseProfiler; Cerep BioPrint panel)
Protocol: as §1

[10] = molecular target: T10, RIPK2 (Homo sapiens, UniProt O43353); settings: read-out: percentage of control activity (POC), RIPK2
T10 construct: purchased Eurofins Pharma Discovery Services (KinaseProfiler; Cerep BioPrint panel)
Protocol: as §1

[11] = molecular target: T11, ROCK-I (Homo sapiens, UniProt Q13464); settings: read-out: percentage of control activity (POC), ROCK-I
T11 construct: purchased Eurofins Pharma Discovery Services (KinaseProfiler; Cerep BioPrint panel)
Protocol: as §1

[12] = molecular target: T12, MSK2 (Homo sapiens, UniProt O75676); settings: read-out: percentage of control activity (POC), MSK2
T12 construct: purchased Eurofins Pharma Discovery Services (KinaseProfiler; Cerep BioPrint panel)
Protocol: as §1

T3 sequence (Q9UM73 19-1620): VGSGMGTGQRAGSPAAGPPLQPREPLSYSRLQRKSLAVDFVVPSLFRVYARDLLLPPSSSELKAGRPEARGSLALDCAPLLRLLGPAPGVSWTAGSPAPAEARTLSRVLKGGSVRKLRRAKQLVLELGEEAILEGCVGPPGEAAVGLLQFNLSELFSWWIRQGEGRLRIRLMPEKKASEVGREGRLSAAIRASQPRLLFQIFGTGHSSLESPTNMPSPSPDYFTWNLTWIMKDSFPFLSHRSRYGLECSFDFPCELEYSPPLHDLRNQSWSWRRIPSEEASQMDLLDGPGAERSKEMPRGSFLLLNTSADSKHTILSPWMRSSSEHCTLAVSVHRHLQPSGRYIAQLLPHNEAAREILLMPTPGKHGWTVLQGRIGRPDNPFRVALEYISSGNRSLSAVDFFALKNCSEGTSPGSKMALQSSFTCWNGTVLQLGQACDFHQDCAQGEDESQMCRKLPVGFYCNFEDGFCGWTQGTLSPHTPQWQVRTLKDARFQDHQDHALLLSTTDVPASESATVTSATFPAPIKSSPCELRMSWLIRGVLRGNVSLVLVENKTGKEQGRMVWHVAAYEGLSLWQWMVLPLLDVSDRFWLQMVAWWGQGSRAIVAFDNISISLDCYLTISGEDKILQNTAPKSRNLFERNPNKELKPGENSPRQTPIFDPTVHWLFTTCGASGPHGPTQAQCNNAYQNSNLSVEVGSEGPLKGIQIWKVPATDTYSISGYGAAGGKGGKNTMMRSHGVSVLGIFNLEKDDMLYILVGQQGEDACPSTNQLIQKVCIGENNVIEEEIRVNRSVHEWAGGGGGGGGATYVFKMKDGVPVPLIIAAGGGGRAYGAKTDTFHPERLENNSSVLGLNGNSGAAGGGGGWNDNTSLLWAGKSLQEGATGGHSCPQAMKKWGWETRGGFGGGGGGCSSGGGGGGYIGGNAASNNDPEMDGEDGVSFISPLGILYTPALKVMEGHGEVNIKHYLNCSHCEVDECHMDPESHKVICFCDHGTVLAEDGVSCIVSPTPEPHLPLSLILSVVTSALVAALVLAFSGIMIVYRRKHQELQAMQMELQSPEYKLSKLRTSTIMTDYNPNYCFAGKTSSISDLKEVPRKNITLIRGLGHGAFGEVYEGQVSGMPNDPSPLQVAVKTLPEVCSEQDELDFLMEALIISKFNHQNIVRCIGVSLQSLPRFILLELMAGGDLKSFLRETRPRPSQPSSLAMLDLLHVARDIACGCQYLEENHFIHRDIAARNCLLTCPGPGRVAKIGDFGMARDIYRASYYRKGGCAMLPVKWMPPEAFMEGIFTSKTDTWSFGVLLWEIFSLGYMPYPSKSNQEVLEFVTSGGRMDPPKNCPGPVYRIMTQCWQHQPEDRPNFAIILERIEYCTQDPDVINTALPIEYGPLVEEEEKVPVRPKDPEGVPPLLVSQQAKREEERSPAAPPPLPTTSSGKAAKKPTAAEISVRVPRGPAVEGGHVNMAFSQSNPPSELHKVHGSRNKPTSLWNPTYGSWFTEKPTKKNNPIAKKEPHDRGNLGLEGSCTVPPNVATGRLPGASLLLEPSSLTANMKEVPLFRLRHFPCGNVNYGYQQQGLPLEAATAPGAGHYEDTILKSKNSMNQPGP
T6 sequence (P09769 whole entry): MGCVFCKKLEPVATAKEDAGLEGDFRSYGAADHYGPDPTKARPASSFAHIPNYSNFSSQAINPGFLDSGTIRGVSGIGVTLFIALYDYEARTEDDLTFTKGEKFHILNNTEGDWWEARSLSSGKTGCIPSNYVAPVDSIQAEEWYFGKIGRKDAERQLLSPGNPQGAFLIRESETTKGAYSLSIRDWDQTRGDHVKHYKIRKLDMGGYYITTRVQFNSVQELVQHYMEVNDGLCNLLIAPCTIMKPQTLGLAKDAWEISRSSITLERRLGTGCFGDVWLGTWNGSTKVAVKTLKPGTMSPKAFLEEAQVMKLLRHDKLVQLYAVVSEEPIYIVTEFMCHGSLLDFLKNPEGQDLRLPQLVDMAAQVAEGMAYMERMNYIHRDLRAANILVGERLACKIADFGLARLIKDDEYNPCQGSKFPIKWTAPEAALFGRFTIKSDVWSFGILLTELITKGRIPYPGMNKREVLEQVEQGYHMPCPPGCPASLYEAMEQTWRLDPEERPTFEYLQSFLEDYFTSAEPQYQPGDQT
T12 sequence (O75676 whole entry): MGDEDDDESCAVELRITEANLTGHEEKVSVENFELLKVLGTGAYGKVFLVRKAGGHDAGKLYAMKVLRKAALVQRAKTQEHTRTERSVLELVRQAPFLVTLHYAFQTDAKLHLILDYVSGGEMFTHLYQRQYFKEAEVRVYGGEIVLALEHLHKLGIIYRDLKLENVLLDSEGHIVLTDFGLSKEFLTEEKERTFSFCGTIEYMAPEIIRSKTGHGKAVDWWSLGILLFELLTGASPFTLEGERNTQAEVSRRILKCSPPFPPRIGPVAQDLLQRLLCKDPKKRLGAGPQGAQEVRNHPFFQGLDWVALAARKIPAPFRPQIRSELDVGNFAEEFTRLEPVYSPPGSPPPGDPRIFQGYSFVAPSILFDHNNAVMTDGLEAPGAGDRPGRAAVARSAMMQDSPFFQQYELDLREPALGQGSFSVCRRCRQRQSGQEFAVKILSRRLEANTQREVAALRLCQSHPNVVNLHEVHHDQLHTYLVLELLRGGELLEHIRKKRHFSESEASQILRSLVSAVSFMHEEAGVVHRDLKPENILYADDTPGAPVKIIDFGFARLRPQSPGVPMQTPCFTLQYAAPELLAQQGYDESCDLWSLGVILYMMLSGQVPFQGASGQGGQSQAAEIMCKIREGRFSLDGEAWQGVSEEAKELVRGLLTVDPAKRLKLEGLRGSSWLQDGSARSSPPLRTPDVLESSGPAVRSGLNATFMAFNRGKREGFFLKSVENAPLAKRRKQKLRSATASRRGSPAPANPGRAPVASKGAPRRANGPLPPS
T1 sequence (P04049 whole entry): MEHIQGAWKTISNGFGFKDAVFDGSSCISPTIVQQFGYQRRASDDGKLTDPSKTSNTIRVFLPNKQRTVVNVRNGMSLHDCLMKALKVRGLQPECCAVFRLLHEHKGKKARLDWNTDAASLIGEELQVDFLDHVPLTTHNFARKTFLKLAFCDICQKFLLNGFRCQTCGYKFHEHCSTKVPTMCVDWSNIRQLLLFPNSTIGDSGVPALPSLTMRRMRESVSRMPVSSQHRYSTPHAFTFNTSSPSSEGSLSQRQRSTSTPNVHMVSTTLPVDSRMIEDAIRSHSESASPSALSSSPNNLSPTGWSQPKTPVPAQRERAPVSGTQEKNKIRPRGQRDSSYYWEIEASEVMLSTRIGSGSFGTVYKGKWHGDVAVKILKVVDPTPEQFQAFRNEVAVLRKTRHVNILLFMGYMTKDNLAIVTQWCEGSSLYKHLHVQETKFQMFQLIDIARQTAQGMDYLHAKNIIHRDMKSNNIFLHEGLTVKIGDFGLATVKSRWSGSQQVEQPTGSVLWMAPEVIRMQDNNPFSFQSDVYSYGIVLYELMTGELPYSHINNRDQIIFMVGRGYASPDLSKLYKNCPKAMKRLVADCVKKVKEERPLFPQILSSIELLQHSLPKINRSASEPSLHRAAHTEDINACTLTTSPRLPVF
T7 sequence (P45984 whole entry): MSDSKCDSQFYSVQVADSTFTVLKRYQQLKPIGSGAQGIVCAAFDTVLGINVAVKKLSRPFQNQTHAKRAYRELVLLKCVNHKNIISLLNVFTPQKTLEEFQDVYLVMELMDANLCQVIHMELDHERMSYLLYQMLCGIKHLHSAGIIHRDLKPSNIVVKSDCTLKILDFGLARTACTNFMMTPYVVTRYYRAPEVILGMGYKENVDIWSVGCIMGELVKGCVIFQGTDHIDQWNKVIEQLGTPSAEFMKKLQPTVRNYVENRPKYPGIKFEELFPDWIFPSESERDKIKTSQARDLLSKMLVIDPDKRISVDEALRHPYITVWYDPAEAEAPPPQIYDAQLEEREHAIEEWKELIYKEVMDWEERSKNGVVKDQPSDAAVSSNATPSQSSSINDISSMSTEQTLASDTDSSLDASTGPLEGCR
T10 sequence (O43353 whole entry): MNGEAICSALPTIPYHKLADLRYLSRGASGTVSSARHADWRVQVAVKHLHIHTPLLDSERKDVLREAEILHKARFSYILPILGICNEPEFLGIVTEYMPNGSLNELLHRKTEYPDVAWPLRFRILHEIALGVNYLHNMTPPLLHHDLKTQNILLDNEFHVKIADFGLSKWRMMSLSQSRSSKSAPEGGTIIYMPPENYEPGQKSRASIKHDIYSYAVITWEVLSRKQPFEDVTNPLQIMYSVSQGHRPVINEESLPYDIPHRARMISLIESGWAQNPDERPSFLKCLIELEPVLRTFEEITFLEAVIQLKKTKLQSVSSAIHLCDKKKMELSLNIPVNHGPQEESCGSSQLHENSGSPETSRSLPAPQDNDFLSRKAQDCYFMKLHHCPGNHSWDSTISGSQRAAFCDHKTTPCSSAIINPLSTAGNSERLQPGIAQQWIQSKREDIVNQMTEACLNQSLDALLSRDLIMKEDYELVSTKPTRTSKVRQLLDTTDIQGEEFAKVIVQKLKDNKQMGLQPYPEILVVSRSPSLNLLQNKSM
T9 sequence (P07948 whole entry): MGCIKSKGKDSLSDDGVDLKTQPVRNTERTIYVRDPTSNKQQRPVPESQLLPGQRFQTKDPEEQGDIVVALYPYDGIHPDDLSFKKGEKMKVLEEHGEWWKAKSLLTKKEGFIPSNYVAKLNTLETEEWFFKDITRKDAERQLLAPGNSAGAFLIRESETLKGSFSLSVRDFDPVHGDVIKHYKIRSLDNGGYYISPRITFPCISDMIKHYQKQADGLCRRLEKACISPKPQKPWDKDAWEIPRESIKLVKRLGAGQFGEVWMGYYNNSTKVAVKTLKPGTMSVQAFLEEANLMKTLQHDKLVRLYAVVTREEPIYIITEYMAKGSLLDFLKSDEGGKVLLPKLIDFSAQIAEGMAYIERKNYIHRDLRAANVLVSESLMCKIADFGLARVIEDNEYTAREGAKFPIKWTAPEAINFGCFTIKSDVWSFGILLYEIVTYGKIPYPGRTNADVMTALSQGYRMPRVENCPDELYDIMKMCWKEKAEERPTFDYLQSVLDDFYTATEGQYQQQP

remaining activity at 10 µM [1] [%] | remaining activity at 10 µM [2] [%] | remaining activity at 10 µM [3] [%] | remaining activity at 10 µM [4] [%] | remaining activity at 10 µM [5] [%] | remaining activity at 10 µM [6] [%] | remaining activity at 10 µM [7] [%] | remaining activity at 10 µM ([8]; 10 μM) [%] | remaining activity at 10 µM [9] [%] | remaining activity at 10 µM [10] [%] | remaining activity at 10 µM [11] [%] | remaining activity at 10 µM [12] [%] | SMILES | inhibition at 10 µM ([8]; 10 μM, read-out: inhibition of Ftl4) [%] | IC50 ([8]; biochemical dose response, duplicate, read-out: Inhibition of indicated activity (IC50, μM): Ftl4) [µM]
112 | 109 | 89 | 91 | 104 | 99 | 101 | 108 | 104 | 61 | 97 | 90 | CC(C)(C)N1CCC(c2cc(-c3ccc(F)cc3Cl)c3cc[n+]([O-])c(-c4c(Cl)cccc4Cl)c3n2)CC1 [compound 2] |  | 
61 | 109 | 146 | 92 | 110 | 98 | 91 | 88 | 66 | 100 | 108 | 109 | COc1c(NC(=O)c2ccc(C)c(-c3nnc4c(NCC(C)(C)C)nccn34)c2)cc(C(C)(C)C)cc1NS(C)(=O)=O [compound 7, reference compound] |  | 

The next lines start with the compound.

SMILES | remaining activity at 10 µM [1] [%] | remaining activity at 10 µM [2] [%] | remaining activity at 10 µM [3] [%] | remaining activity at 10 µM [4] [%] | remaining activity at 10 µM [5] [%] | remaining activity at 10 µM [6] [%] | remaining activity at 10 µM [7] [%] | remaining activity at 10 µM ([8]; 10 μM) [%] | remaining activity at 10 µM [9] [%] | remaining activity at 10 µM [10] [%] | remaining activity at 10 µM [11] [%] | remaining activity at 10 µM [12] [%] | inhibition at 10 µM ([8]; 10 μM, read-out: inhibition of Ftl4) [%] | IC50 ([8]; biochemical dose response, duplicate, read-out: Inhibition of indicated activity (IC50, μM): Ftl4) [µM]
Cc1ccc(C(=O)NCC2CC2)cc1-c1ccc2c(c1)NC(=O)C21CCCC1 [compound 3] | 54 | 99 | 77 | 105 | 110 | 93 | 94 | 78 | 101 | 94 | 98 | 91 |  | 
Cn1cc(-c2cccc(-c3nc(C(=O)NC4C5CC6CC4CC(O)(C6)C5)c(N)nc3N)c2)cn1 (centres unmarked) [compound 4] | 52 | 100 | 64 | 99 | 95 | 67 | 98 | 20 | 66 | 61 | 91 | 96 | 80 | 3.13
CS(=O)(=O)N1CCN(c2ccc(Nc3ncc(C(N)=O)c(NC4CC4)n3)cc2)CC1 [compound 5] | 10 | 26 | 62 | 36 | 1 | 5 | 8 | 0 | 5 | 81 | 43 | 21 |  | 
